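Interpolation was linear, between the two tested concentrations surrounding the appropriate level; five concentrations were tested over 48 hours in 96-well plates. The concentration for 50% growth inhibition is given as GI50. TGI: total growth inhibition.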
How the values were obtained:
Assay in all cases: DTP human tumour cell line panel, 48 h
[1] = system: EKVX NSCLC
[2] = system: HCT-15 colon
[3] = system: LOX IMVI melanoma
[4] = system: M14 melanoma
[5] = system: OVCAR-3 ovarian
[6] = system: OVCAR-8 ovarian
[7] = system: SF-268 CNS
[8] = system: SF-539 CNS
[9] = system: T-47D breast
[10] = system: UO-31 renal

| Structure (SMILES) | TGI [1] | TGI [2] | TGI [3] | TGI [4] | TGI [5] | TGI [6] | TGI [7] | TGI [8] | TGI [9] | TGI [10] | GI50 [1] | GI50 [5] | GI50 [8] | GI50 [9] | GI50 [10] | GI50 [2] | GI50 [6] | GI50 [7] | GI50 [3] | GI50 [4] |
| --- | --- | --- | --- | --- | --- | --- | --- | --- | --- | --- | --- | --- | --- | --- | --- | --- | --- | --- | --- | --- |
| COC(=O)C1=C(O)C(C(=O)OC)[C@]2(O)[C@H](C(=O)OC)[C@H]1C[C@@H](c1ccc([N+](=O)[O-])cc1)[C@H]2C(=O)OC (stereo partly drawn) | > 100 µM | 38.6 µM | 32 µM | 44.5 µM | > 100 µM | 41.4 µM | 51.6 µM | > 100 µM | > 100 µM |  |  |  |  |  |  |  |  |  |  |  |
| O=[N+]([O-])c1cccnc1-n1cnc2ccccc21 | > 100 µM | > 100 µM | > 100 µM | > 100 µM | > 100 µM | > 100 µM | > 100 µM | > 100 µM | > 100 µM |  |  |  |  |  |  |  |  |  |  |  |
| O=C1C=CC(=O)c2c(Cl)ccc(O)c21 | 43 µM | 39.1 µM | 37.2 µM |  | 29.1 µM | 50.2 µM | 33.4 µM | > 56.8 µM |  | > 100 µM |  |  |  |  |  |  |  |  |  |  |
| Cn1c2ccccc2n2c3ncccc3c(=S)c(C#N)c12 | > 100 µM | > 100 µM | > 100 µM | > 100 µM | > 100 µM | > 100 µM | > 100 µM |  | > 100 µM | > 100 µM |  |  |  |  |  |  |  |  |  |  |
| c1ccc(-c2nnn(CCN3CCCCC3)n2)cc1 | > 100 µM | > 100 µM | > 100 µM | > 100 µM | > 100 µM | > 100 µM | > 100 µM |  | > 100 µM | > 100 µM |  |  |  |  |  |  |  |  |  |  |
| CO[C@]1(CN2CCN3CCCC[C@@H]3C2)/C=C/C[C@H](C)[C@@H](C)S(=O)(=O)NC(=O)c2ccc3c(c2)N(C[C@@H]2CC[C@H]21)C[C@@]1(CCCc2cc(Cl)ccc21)CO3 | 5.1 µM |  |  |  | 3.03 µM |  |  | 2.72 µM | 5.11 µM | 2.93 µM | 1.55 µM | 1.62 µM | 1.39 µM | 1.87 µM | 1.43 µM |  |  |  |  |  |
| Cc1nc(-c2cc3cc(Cl)ccc3oc2=O)cc2c1c(=O)oc1ccc(Cl)cc12 | > 100 µM | > 100 µM | > 100 µM | > 100 µM | > 100 µM | > 100 µM | > 100 µM |  | > 100 µM | > 100 µM |  |  |  |  |  |  |  |  |  |  |
| Cc1[nH]c(=O)[nH]c(=S)c1C(=O)Nc1cccc2cc3ccccc3cc12 | > 100 µM | > 100 µM | > 100 µM | > 100 µM | > 100 µM | > 100 µM | > 100 µM |  | > 100 µM | > 100 µM |  |  |  |  |  |  |  |  |  |  |
| Cc1csc(NC(=NCCN2CCOCC2)Nc2nc(C)cs2)n1 | > 100 µM | > 100 µM | > 100 µM |  | > 100 µM | > 100 µM | > 100 µM | > 100 µM |  | > 100 µM |  |  |  |  |  |  |  |  |  |  |
| COc1ccc2nc3n(c2c1)CCc1cc(OC)c(OC)cc1-3 | > 100 µM | > 100 µM | > 100 µM | > 100 µM | > 100 µM | > 100 µM | > 100 µM | > 100 µM | > 100 µM |  |  |  |  |  |  |  |  |  |  |  |
| CC(=O)Nc1cc(Nc2cc(=O)[nH]c(=O)[nH]2)ccc1C | > 100 µM | > 100 µM | > 100 µM | > 100 µM | > 100 µM | > 100 µM | > 100 µM | > 100 µM |  | > 100 µM |  |  |  |  |  |  |  |  |  |  |
| N/C(=N\Nc1ccc(S(N)(=O)=O)cc1)c1cnccn1 | > 100 µM | > 100 µM | > 100 µM | > 100 µM | > 100 µM | > 100 µM | > 100 µM |  | > 100 µM | > 100 µM |  |  |  |  |  |  |  |  |  |  |
| COc1ccccc1CNCCCCCCCCCCCCN1C(=O)c2ccc3c4c(ccc(c24)C1=O)C(=O)N(CCCCCCCCCCCCNCc1ccccc1OC)C3=O | > 50 µM | > 50 µM |  |  |  | 1.94 µM | > 50 µM |  | > 50 µM |  | > 50 µM |  |  | > 50 µM |  | > 50 µM | 0.908 µM | > 50 µM |  |  |
| CC1CC/C(=C\c2ccc(Cl)cc2)c2nc(N)c(C#N)c(-c3ccc(Cl)cc3)c21 (stereo not drawn) | > 100 µM | > 100 µM | > 100 µM | > 100 µM | > 100 µM | > 100 µM |  | > 100 µM | > 100 µM | > 100 µM |  |  |  |  |  |  |  |  |  |  |
| CC(=O)CC(=O)CCC(=O)O | > 100 µM | > 100 µM | > 100 µM | > 100 µM |  | > 100 µM | > 100 µM | > 100 µM |  | > 100 µM |  |  |  |  |  |  |  |  |  |  |
| Nc1ncnc2c1ncn2Cc1cccc(CCl)c1 | 37.1 µM | 41.7 µM | 71.7 µM | 29.7 µM | 32.3 µM | 42.9 µM | 32.4 µM | 33.4 µM |  | 32.5 µM |  |  |  |  |  |  |  |  |  |  |
| CC(C)(C)OC(=O)n1cc(C2CN(O)C(=O)C23CCC(=O)N3Cc2ccccc2)c2ccccc21 (stereo not drawn) | 47.7 µM |  | 55.3 µM | > 100 µM | > 100 µM |  | > 100 µM | > 100 µM | > 100 µM | > 100 µM |  |  |  |  |  |  |  |  |  |  |
| O=C1c2ccccc2C(=O)N1c1nc(-c2ccc(Cl)cc2)cc(N2N=C(c3ccc(Br)cc3)CC2c2ccccc2)n1 (stereo not drawn) | 5.99 µM | 7.14 µM | 3.78 µM | > 36.1 µM | 2.65 µM | > 24.1 µM | 7.72 µM | 4.41 µM | 5.26 µM |  |  |  |  |  |  |  |  |  |  |  |
| CC1OC2OC3C(OCC(O)C3O)OC(=O)[C@]34CCC(C)(C)CC3C3=CCC5[C@@]6(C)C[C@H](O)[C@H](OC7OC(CO)C(O)C(O)C7OC7OCC(OC(=O)CC(C)(O)CC(=O)OC1C(OC1OC(CO)C(O)C(O)C1O)C2O)C(O)C7O)[C@@](C)(CO)C6CC[C@@]5(C)[C@]3(C)CC4 (stereo partly drawn) |  | 22.5 µM | 20.6 µM | 15 µM | 19.3 µM | 23.6 µM | 22.2 µM | 26.8 µM | 20.3 µM | 14.9 µM |  |  |  |  |  |  |  |  |  |  |
| O=C(Nc1cccc(-n2cc(-c3ccncc3)c(-c3ccc(O)c(Cl)c3)n2)c1)c1cccc(C(F)(F)F)c1 |  | > 100 µM | > 100 µM | > 100 µM |  | > 100 µM | > 100 µM | > 100 µM | > 100 µM | > 100 µM |  |  | 3.27 µM | 3 µM | 4.29 µM | 1.98 µM | 3.89 µM | 7.11 µM | 2.35 µM | 2.72 µM |
| COc1c(C)c(C/C=C(\C)CC/C=C(\C)CCC=C(C)C)c(OC)c(OC)c1OC | > 100 µM | > 100 µM | > 100 µM | > 100 µM | > 100 µM | > 100 µM | > 100 µM | > 100 µM |  | > 100 µM |  |  |  |  |  |  |  |  |  |  |
| O=C(CC1Sc2ccccc2NC1=O)Nc1ccc(Cl)cc1 (stereo not drawn) | > 100 µM | > 100 µM | > 100 µM | > 100 µM | > 100 µM | > 100 µM | > 100 µM | > 100 µM |  | > 100 µM |  |  |  |  |  |  |  |  |  |  |
